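All cell lines were grown in 96-well plates and treated with compound for 48 hours. GI50 is the concentration that inhibits growth by half.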 The source made the active and inactive calls. Cut-off read from the data, not from the text of the source: active = GI50 up to about 1.1 µM and inactive = higher. Positions of bridges follow the written chain, without caps; N, C: chain ends. Residues, ends and D or L forms follow the SMILES beside them.

Some test systems named below: MCF7; NCI-H522; HCT-15; K562; MDA-N; SK-MEL-5; COLO 205; HCT-116; Hs-578T; SN12C; U-251; 786-0; OVCAR-8; SF-539; HOP-92; UO-31; MDA-MB-231; PC-3; NCI-H23; HCC 2998.
Holding throughout (experiment): DTP human tumour cell line panel, 48 h

As for `Nc1nc(=O)c2c([nH]1)NCC(CCNc1ccc(C(=O)O)cc1)N2` (stereo not drawn), the GI50 – broadly, the concentration giving 50% growth inhibition – is > 100 µM (inactive) in the experiment on MCF7; > 100 µM (inactive) in the experiment on NCI-H522; above 100 µM with HCT-15; > 100 µM (inactive) in the experiment with K562; > 100 µM (inactive) in the experiment with MDA-N; > 100 µM (inactive) in the experiment with SK-MEL-5. The GI50 in the experiment with COLO 205, in the experiment with HCT-116, in the experiment with Hs-578T, in the experiment with SN12C, with U-251 and in the experiment on 786-0 was > 100 µM (inactive) in each case. The GI50 with OVCAR-8, with SF-539, with HOP-92, in the experiment with UO-31, in the experiment with MDA-MB-231 and with PC-3 was > 100 µM (inactive) throughout. Further, in the experiment on NCI-H23, the GI50 was > 100 µM (inactive).
Consider `CC1(C)CCCCCCCCCC(C)(CCCO)C1=O` (stereo not drawn), for which the GI50 in the experiment on MCF7 was 17.1 µM (inactive); with NCI-H522, 15.4 µM (inactive); in the experiment with HCT-15, 17.8 µM; with K562, 24.6 µM (inactive); in the experiment with MDA-N, 16.4 µM (inactive); with SK-MEL-5, 17.5 µM (inactive). In addition, the GI50 in the experiment with COLO 205 was 16.3 µM (inactive); in the experiment with HCT-116, 17.3 µM (inactive); in the experiment on Hs-578T, 20.6 µM (inactive); with SN12C, 18.2 µM (inactive); in the experiment with U-251 it was 16.8 µM (inactive); with 786-0 it was 16.9 µM (inactive). Moreover, the GI50 in the experiment with OVCAR-8 was 18.4 µM (inactive); in the experiment with HOP-92, 14.5 µM (inactive); in the experiment on HCC 2998 it was 17.7 µM (inactive); with UO-31, 12 µM (inactive); in the experiment with MDA-MB-231 it was 15.2 µM (inactive); in the experiment on PC-3, 14 µM (inactive). In addition, the GI50 in the experiment with NCI-H23 was 15.5 µM (inactive).
As to `Cc1ccc(-c2cc(O)c3nc4ccccc4n3c2)cc1`, the GI50 was > 100 µM (inactive) in the experiment with MCF7; 7.38 µM (inactive) in the experiment on NCI-H522; above 100 µM in the experiment on HCT-15; > 100 µM (inactive) in the experiment on K562; > 100 µM (inactive) in the experiment on MDA-N; > 100 µM (inactive) with COLO 205. Further, the GI50 in the experiment with HCT-116 is > 100 µM (inactive); in the experiment with Hs-578T, > 100 µM (inactive); in the experiment on SN12C it was > 100 µM (inactive); with U-251, > 100 µM (inactive); with 786-0 it was > 100 µM (inactive); with OVCAR-8, 54.3 µM (inactive). Besides, the GI50 in the experiment with SF-539, in the experiment on HOP-92, with UO-31, in the experiment on MDA-MB-231, in the experiment on PC-3 and in the experiment with NCI-H23 was > 100 µM (inactive) each time.
On to `O=C1C(C(c2ccc([N+](=O)[O-])cc2)N2CCOCC2)=C(O)C(c2ccccc2)N1c1ccccc1` (stereo not drawn), for which the GI50 is > 10 µM (inactive) in the experiment on MCF7; > 10 µM (inactive) in the experiment with NCI-H522; above 10 µM with HCT-15; > 10 µM (inactive) with K562; > 10 µM (inactive) in the experiment on MDA-N; > 10 µM (inactive) in the experiment with SK-MEL-5. Moreover, the GI50 in the experiment on COLO 205, in the experiment on HCT-116, with Hs-578T, in the experiment on SN12C, with U-251 and in the experiment on 786-0 was > 10 µM (inactive) in each case. In addition, the GI50 in the experiment on OVCAR-8, with SF-539, with HCC 2998, in the experiment with UO-31, in the experiment with MDA-MB-231 and with PC-3 was > 10 µM (inactive) throughout. Also, the GI50 in the experiment on NCI-H23 is > 10 µM (inactive).
Turning to `CC(N/N=C(\S)N1CCCC1)c1cccnn1` (stereo not drawn), the GI50 in the experiment with MCF7 was 0.308 µM (active); in the experiment on NCI-H522 it was 2.31 µM (inactive); in the experiment on HCT-15 it was 0.443 µM; in the experiment with K562 it was 0.632 µM (active); in the experiment on MDA-N, 1.84 µM (inactive); in the experiment with SK-MEL-5 it was 0.279 µM (active). For the same compound, the GI50 is 0.376 µM (active) with COLO 205; 0.335 µM (active) in the experiment on HCT-116; 9.53 µM (inactive) in the experiment with Hs-578T; 0.778 µM (active) in the experiment with SN12C; 0.358 µM (active) in the experiment on U-251; 0.452 µM (active) with 786-0. Besides, the GI50 in the experiment with OVCAR-8 is 0.342 µM (active); with SF-539, 0.215 µM (active); with HCC 2998, 18.5 µM (inactive); with UO-31, 0.741 µM (active); in the experiment with MDA-MB-231, 1.03 µM (active); with PC-3, 0.375 µM (active). The GI50 in the experiment on NCI-H23 was 0.561 µM (active).
As to `CCC(C)C1NC(=O)C(CC(C)C)NC(=O)C(C(C)C)NC(=O)C2CSSCC(NC1=O)C(=O)N2` (stereo not drawn) (cyclo(CCVLI); disulfide 1-2; configuration not given here), the GI50 was 0.0318 µM (active) in the experiment with MCF7; 0.142 µM (active) in the experiment on NCI-H522; 1.86 µM in the experiment with HCT-15; 0.184 µM (active) in the experiment on MDA-N; 0.153 µM (active) in the experiment on SK-MEL-5; 0.0991 µM (active) in the experiment on COLO 205. Also, the GI50 in the experiment on HCT-116 is 0.0498 µM (active); in the experiment with Hs-578T, 0.043 µM (active); in the experiment with SN12C, 0.192 µM (active); with U-251, 0.0385 µM (active); in the experiment with 786-0, 0.157 µM (active); with OVCAR-8, 0.194 µM (active). Also, the GI50 with SF-539 is 0.144 µM (active); with HOP-92, 0.121 µM (active); in the experiment with HCC 2998, 0.082 µM (active); in the experiment with UO-31, 2.16 µM (inactive); in the experiment with MDA-MB-231, 0.103 µM (active); with PC-3, 0.147 µM (active). Besides, the GI50 in the experiment with NCI-H23 was 0.138 µM (active).
For `C=C1C(=O)[C@]23C[C@H]1C[C@@H](O)[C@H]2[C@]1(COC3=O)[C@@H](OC(C)=O)CC[C@@](C)(COC(C)=O)[C@H]1C=O` [LOXOTHYRIN A], the GI50 in the experiment on MCF7 was 17.8 µM (inactive); in the experiment with NCI-H522, 7.28 µM (inactive); in the experiment with HCT-15 it was above 50 µM; with K562, 6.97 µM (inactive); in the experiment with MDA-N, > 50 µM (inactive); with SK-MEL-5, > 50 µM (inactive). Also, the GI50 in the experiment with COLO 205 was 8.53 µM (inactive); in the experiment with HCT-116, 37 µM (inactive); with Hs-578T it was 3.97 µM (inactive); with SN12C, > 50 µM (inactive); with U-251 it was > 50 µM (inactive); in the experiment on 786-0, 36.4 µM (inactive). Further, the GI50 in the experiment on OVCAR-8 was > 50 µM (inactive); in the experiment on HOP-92, 10.2 µM (inactive); with HCC 2998, > 50 µM (inactive); in the experiment with UO-31 it was > 50 µM (inactive); in the experiment on MDA-MB-231, > 50 µM (inactive); with PC-3, > 50 µM (inactive). The GI50 in the experiment with NCI-H23 was > 50 µM (inactive).
As for `Cc1ccc(/C(O)=C/c2nc3ccccc3oc2=O)cc1`, the GI50 in the experiment on MCF7 is 47.6 µM (inactive); with NCI-H522, 16.7 µM (inactive); in the experiment on HCT-15 it was 92.7 µM; in the experiment on K562, 27.4 µM (inactive); with MDA-N, 23.6 µM (inactive); in the experiment with SK-MEL-5, 19.2 µM (inactive). Also, the GI50 with COLO 205 was 87.7 µM (inactive); with HCT-116, 75.3 µM (inactive); in the experiment on Hs-578T, 46.9 µM (inactive); in the experiment with SN12C it was > 100 µM (inactive); in the experiment with U-251, > 100 µM (inactive); with 786-0, 85.3 µM (inactive). In addition, the GI50 was 38.4 µM (inactive) in the experiment on OVCAR-8; > 100 µM (inactive) in the experiment with SF-539; > 100 µM (inactive) in the experiment on HCC 2998; 40.1 µM (inactive) in the experiment on UO-31; > 100 µM (inactive) with MDA-MB-231; 50.1 µM (inactive) in the experiment on PC-3. In addition, the GI50 in the experiment with NCI-H23 was 72.1 µM (inactive).
As to `NC(Cc1c[nH]c2cc([N+](=O)[O-])ccc12)C(=O)O` (stereo not drawn), the GI50 is > 100 µM (inactive) in the experiment on MCF7; > 100 µM (inactive) with NCI-H522; above 100 µM in the experiment with HCT-15; > 100 µM (inactive) in the experiment on K562; > 100 µM (inactive) with MDA-N; > 100 µM (inactive) in the experiment on SK-MEL-5. Also, the GI50 in the experiment on COLO 205, with HCT-116, with Hs-578T, in the experiment on SN12C, with U-251 and in the experiment on 786-0 was > 100 µM (inactive) throughout. Besides, the GI50 in the experiment on OVCAR-8 was > 100 µM (inactive); in the experiment with SF-539, > 100 µM (inactive); in the experiment with HOP-92 it was 67.6 µM (inactive); in the experiment on UO-31, > 100 µM (inactive); with MDA-MB-231, > 100 µM (inactive); in the experiment on PC-3, > 100 µM (inactive). For the same compound, the GI50 with NCI-H23 is > 100 µM (inactive).
On to `Cc1cccc(C)c1N1C(=O)C2c3[nH]c4ccccc4c3C3CCC(C(C)(C)C)CC3C2C1=O` (stereo not drawn), for which the GI50 in the experiment on MCF7 is 3.47 µM (inactive); in the experiment on HCT-15 it was 11.4 µM; with K562 it was 9.06 µM (inactive); in the experiment with MDA-N, 11.5 µM (inactive); with SK-MEL-5 it was 14.3 µM (inactive); in the experiment with COLO 205, 10.9 µM (inactive). Moreover, the GI50 in the experiment on HCT-116 is 9.25 µM (inactive); in the experiment with Hs-578T, 16.6 µM (inactive); with SN12C it was 10.2 µM (inactive); in the experiment on U-251, 16.8 µM (inactive); in the experiment on 786-0, 8.67 µM (inactive); in the experiment on OVCAR-8, 17 µM (inactive). The GI50 was 17.5 µM (inactive) with SF-539; 6.32 µM (inactive) with HOP-92; 3.85 µM (inactive) with HCC 2998; 10.8 µM (inactive) with UO-31; 11.9 µM (inactive) in the experiment with MDA-MB-231; 6.44 µM (inactive) in the experiment on PC-3. The GI50 in the experiment on NCI-H23 was 14.8 µM (inactive).
`O=C1N/C(=N/N=C/c2ccccc2)N/C1=C\c1cccs1`: the GI50 is 9.84 µM (inactive) in the experiment with MCF7; 1.98 µM (inactive) with NCI-H522; 17.9 µM in the experiment on HCT-15; 12.2 µM (inactive) with K562; 8.32 µM (inactive) with MDA-N; 7.53 µM (inactive) in the experiment with SK-MEL-5. The GI50 was 8.13 µM (inactive) in the experiment on COLO 205; 17.3 µM (inactive) in the experiment on HCT-116; 2.77 µM (inactive) with Hs-578T; 19.1 µM (inactive) in the experiment with SN12C; 15.6 µM (inactive) in the experiment with U-251; 18.5 µM (inactive) in the experiment with 786-0. Moreover, the GI50 is 13 µM (inactive) with OVCAR-8; 10.4 µM (inactive) in the experiment on SF-539; 15.8 µM (inactive) in the experiment with HOP-92; 21.8 µM (inactive) with UO-31; 18.6 µM (inactive) in the experiment with MDA-MB-231; 10 µM (inactive) with PC-3. For the same compound, the GI50 with NCI-H23 is 15.9 µM (inactive).

For the origin of these results see ChEMBL document CHEMBL1201862, “PubChem BioAssay data set” (2004).
